Source: patent US7217534B2, “Methods of screening apoptosis modulating compounds, compounds identified by said methods and use of said compounds as therapeutic agents” (Institut Pasteur, priority 2002, dated 2007)

B1: IL-4: Murine rIL-4 or supernatant of a HeLa subline transfected with PKCRIL-4.neo, used as source of murine IL-4 (protein, UniProt P07750 21-140, looked up)
Interleukin-4: HIHGCDKNHLREIIGILNEVTGEGTPCTEMDVPNVLTATKNTTESELVCRASKVLRIFYLKHGKTPCLKKNSSVLMELQRLFRAFRCLDSSISCTMNESKSTSLKDFLESLKSIMQMDYS

Experiments:
[1] = test system: IL-4-stimulated cells (TS1αβ murine T cell line); experiment: Cholesterol depletion, raft association of Bad and Lck by CTx-FITC confocal microscopy; type: cell-based; details: 10 mM, 30 min, 37° C., serum-free medium
Protocol: A) IL-4-stimulated cells were serum-starved for 30 min and then treated with or without 10 mM M-β-CD for 30 min at 37° C. before incubation with CTx-FITC and anti-Bad or anti-Lck antibodies, followed by Cy3-labeled secondary antibody. Then, cells were analyzed by confocal microscopy. Similar results were obtained in two independent experiments. Single confocal sections show green (FITC) and red (Cy3) fluorescence. B) IL-4-stimulated cells were serum-starved for 30 min and then treated with or without 10 mM M-β-CD for 30 min at 37° C., then washed and transferred to complete medium supplemented with IL-4. At different times, apoptosis was measured. Sub G1 region of the fluorescence scale was used to determine the percentage of cells present in the initial step of apoptosis. Similar results were obtained in two independent experiments. White bars, control cells; grey bars, M-β-CD-treated cells. […]
IL-4-stimulated or -deprived cells were fixed with 1% paraformaidehyde for 5 min on ice, permeabilized and then incubated with CTx-FITC (20 min, 6 μg/ml) and anti-Bad antibody for 1 h in PBS-BSA. […] Finally, and after several washing steps, cells were incubated with methanol at −20° C. for 10 min, mounted wiht Vectashield medium, and analyzed by confocal microscopy. The program used for quantification of samples was Leica TSC NT version 1.5.451 (Leica, Lasertechnik, Heidelberg, Germany). […]

[2] = test system: IL-4-stimulated cells (TS1αβ murine T cell line); experiment: Apoptosis by cell cycle analysis (sub-G1 region, propidium iodide flow cytometry); type: cell-based
Protocol: A) IL-4-stimulated cells were serum-starved for 30 min and then treated with or without 10 mM M-β-CD for 30 min at 37° C. before incubation with CTx-FITC and anti-Bad or anti-Lck antibodies, followed by Cy3-labeled secondary antibody. Then, cells were analyzed by confocal microscopy. Similar results were obtained in two independent experiments. Single confocal sections show green (FITC) and red (Cy3) fluorescence. B) IL-4-stimulated cells were serum-starved for 30 min and then treated with or without 10 mM M-β-CD for 30 min at 37° C., then washed and transferred to complete medium supplemented with IL-4. At different times, apoptosis was measured. Sub G1 region of the fluorescence scale was used to determine the percentage of cells present in the initial step of apoptosis. Similar results were obtained in two independent experiments. White bars, control cells; grey bars, M-β-CD-treated cells.
(§1) TS1αβ is a murine T cell line that can be propagated independently in IL-2, IL-4 or IL-9 Cells were cultured in RPMI-1640 as previously described (Pitton et al., 1993, Cytokine 5, 362–371). Murine rIL-4 or supernatant of a HeLa subline transfected with PKCRIL-4.neo was used as a source of murine IL-4. Fluorescein isothiocyanate (FITC-)-labeled cholera toxin (CTx) B subunit, CTx-Biotin and methyl-β-cyclodextrin (M-β-CD) were obtained from Sigma-Aldrich (St. Louis, Mo.). Cy3- and Cy2-conjugated secondary antibodies were purchased from Molecular Probes (Eugene, Oreg.). Anti-mitochondria serum (mito 2813, pyruvate dehydrogenase) was a gift from Dr A. Serrano (CNB, Madrid, Spain).
A total of 2×10^5 IL-4-stimulated cells treated with or without M-β-CD were washed, resuspended in PBS, permeabilized with 0.1% Nonidet P-40 and stained with 50 μg/ml propidium iodide (PI). At different times, samples were analyzed using a EpicsXL flow cytometer (Coulter, Hialeah, Fla.). Apoptosis was measured as the percentage of cells in the sub-G1 region of the fluorescence scale having an hypodiploid DNA content.
Given that exclusion of Bad from rafts was also observed in apoptotic IL-4-deprived cells (FIG. 3A), it was analyzed whether Bad association to rafts and its integrity was necessary for prevention of apoptosis. For this purpose, IL-4-stimulated cells were treated for 30 min with or without M-β-CD in serum-free medium, then washed, resuspended in IL-4-supplemented complete medium and analyzed for induction of apoptosis at different times (FIG. 4B). […] Eight hours upon treatment, the amount of apoptotic cells detected in treated and non treated cells were similar because addition of serum restores the lipid composition of the membrane.

Bad = experiment: Serine phosphorylation of Bad by immunoprecipitation and western blot; type: cell-based, murine; details: anti-Bad serine 136, 112 and 155 blots, IL-4-stimulated cells
Excerpt: A) Cytoplasmic extracts from IL-4-stimulated or -deprived cells were immunoprecipitated with anti-Bad antibody and blotted with anti-Bad serine 136, 112 and 155. As internal control, the blot was developed with anti-Bad. Positive control for serine 112 and 136 phosphorylation, IL-2-stimulated cells; positive control for serine 155 phosphorylation of Bad, Bad-transfected COS cells (C). […] Molecular weight of the corresponding proteins is shown.
as §1, with “Spain). […]” for “Spain).”
Posttranslational modifications of Bad such as phosphorylation, and its role in Bad localization in rafts or mitochondria was further analyzed. […]

| Molecule | raft formation and association of Lck and Bad with rafts [1] | time of highest level of apoptosis after treatment ([2]; 30 min treatment in serum-free medium, then IL-4-supplemented complete medium) [h] | level of apoptosis compared with control non treated cells ([2]; 30 min treatment in serum-free medium, then IL-4-supplemented complete medium, different times) | amount of apoptotic cells in treated and non treated cells ([2]; eight hours upon treatment, serum added back) | level of apoptosis in IL-4-stimulated cells ([2]; control IL-4-stimulated cells versus IL-4-deprived cells, 4 h to 24 h) | serine phosphorylation of Bad (Bad) |
| --- | --- | --- | --- | --- | --- | --- |
| methyl-β-cyclodextrin [M-β-CD] | severe disruption of raft formation and association of Lck and Bad with rafts | 5 | stronger level of apoptosis | similar |  |  |
| B1 |  |  |  |  | no significant level of apoptosis | induces serine 136 phosphorylation of Bad, but not serine 112 and 155 |
